The record followed here is ChEMBL document CHEMBL3046389, “Synthesis and biological evaluation of novel hydroquinone dimethyl ethers as potential anticancer and antimicrobial agents” (2013).

Converted amounts (≈) assume the structure as drawn.

Holding throughout (format): functional
Assay [1] has as its system Staphylococcus aureus. The experiment in a line: Antimicrobial activity against Staphylococcus aureus DSM 1104 after 48 hr by two-fold serial broth dilution method relative to ampicillin. On the technique in general: In broth dilution the organism is exposed to a series of concentrations in liquid medium.
Assay [2] has as its system Candida albicans. The experiment in a line: Antimicrobial activity against Candida albicans DSM 70014 after 48 hr by two-fold serial broth dilution method. Particulars: DSM 70014, 48 h.
The subject of assay [3] is Pseudomonas aeruginosa. Put plainly: Antimicrobial activity against Pseudomonas aeruginosa ATCC 10145 after 48 hr by two-fold serial broth dilution method. The note with it: ATCC 10145, 48 h.
Assay [4] relates to Staphylococcus aureus. Put plainly: Antimicrobial activity against Staphylococcus aureus DSM 1104 after 48 hr by two-fold serial broth dilution method. Particulars: DSM 1104, 48 h.
The next assay has as its system Escherichia coli. Put plainly: Antimicrobial activity against Escherichia coli ATCC 11775 after 48 hr by two-fold serial broth dilution method. Particulars: ATCC 11775, 48 h.
A further assay has as its system Bacillus subtilis. The experiment in a line: Antimicrobial activity against Bacillus subtilis ATCC 6633 after 48 hr by two-fold serial broth dilution method. The note with it: ATCC 6633, 48 h.
The test system of another assay is T47D. The experiment in a line: Growth inhibition of Homo sapiens (human) T47D cells at 10 uM after 48 hr by SRB assay. Particulars: read-out: GI.
For the next assay, the system named is UO-31. The experiment in a line: Growth inhibition of Homo sapiens (human) UO31 cells at 10 uM after 48 hr by SRB assay. The note with it: UO-31, 48 h, read-out: GI. Background: In SRB staining, fixed cells bind dye roughly in proportion to their protein.
The subject of assay [5] is Pseudomonas aeruginosa. The experiment in a line: Ratio of ampicillin MIC to compound MIC for Pseudomonas aeruginosa ATCC 10145 after 48 hr by two-fold serial broth dilution method.
A further assay concerns HCT-116. Put plainly: Growth inhibition of Homo sapiens (human) HCT116 cells at 10 uM after 48 hr by SRB assay. The note with it: HCT-116, 48 h, read-out: GI.
The next assay has as its system MDA-MB-468. Put plainly: Growth inhibition of Homo sapiens (human) MDA-MB-468 cells at 10 uM after 48 hr by SRB assay. Particulars: MDA-MB-468, 48 h, read-out: GI.
A further assay concerns MCF7. Put plainly: Growth inhibition of Homo sapiens (human) MCF7 cells at 10 uM after 48 hr by SRB assay. The note with it: MCF7, 48 h, read-out: GI.
For another assay, the system named is PC-3. The experiment in a line: Growth inhibition of Homo sapiens (human) PC3 cells at 10 uM after 48 hr by SRB assay. Particulars: PC-3, 48 h, read-out: GI.
Another assay concerns NCI-H23. Put plainly: Growth inhibition of Homo sapiens (human) NCI-H23 cells at 10 uM after 48 hr by SRB assay. The note with it: NCI-H23, 48 h, read-out: GI.
The next assay relates to EKVX. The experiment in a line: Growth inhibition of Homo sapiens (human) EKVX cells at 10 uM after 48 hr by SRB assay. The note with it: read-out: GI.
The subject of another assay is A549. Put plainly: Growth inhibition of Homo sapiens (human) A549/ATCC cells at 10 uM after 48 hr by SRB assay. Particulars: A549, 48 h, read-out: GI.
In a further assay the test system is SR. Put plainly: Growth inhibition of Homo sapiens (human) SR cells at 10 uM after 48 hr by SRB assay. The note with it: read-out: GI.
A further assay deals with K562. The experiment in a line: Growth inhibition of Homo sapiens (human) K562 cells at 10 uM after 48 hr by SRB assay. The note with it: K562, 48 h, read-out: GI.
In a further assay the test system is HL-60(TB). Put plainly: Growth inhibition of Homo sapiens (human) HL-60(TB) cells at 10 uM after 48 hr by SRB assay. The note with it: HL-60, 48 h, read-out: GI.
Another assay concerns RXF 393. Put plainly: Growth inhibition of Homo sapiens (human) RXF393 cells at 10 uM after 48 hr by SRB assay. The note with it: RXF 393, 48 h, read-out: GI.
Another assay concerns CAKI-1. The experiment in a line: Growth inhibition of Homo sapiens (human) CAKI-1 cells at 10 uM after 48 hr by SRB assay. The note with it: CAKI-1, 48 h, read-out: GI.
In a further assay the test system is ACHN. The experiment in a line: Growth inhibition of Homo sapiens (human) ACHN cells at 10 uM after 48 hr by SRB assay. Particulars: read-out: GI.
The next assay relates to IGROV-1. The experiment in a line: Growth inhibition of Homo sapiens (human) IGROV1 cells at 10 uM after 48 hr by SRB assay. The note with it: IGROV-1, 48 h, read-out: GI.
In another assay the test system is UACC-62. The experiment in a line: Growth inhibition of Homo sapiens (human) UACC62 cells at 10 uM after 48 hr by SRB assay. The note with it: UACC-62, 48 h, read-out: GI.
A further assay concerns SK-MEL-5. Put plainly: Growth inhibition of Homo sapiens (human) SK-MEL-5 cells at 10 uM after 48 hr by SRB assay. The note with it: SK-MEL-5, 48 h, read-out: GI.
The subject of a further assay is MDA-MB-435. Put plainly: Growth inhibition of Homo sapiens (human) MDA-MB-435 cells at 10 uM after 48 hr by SRB assay. Particulars: MDA-MB-435, 48 h, read-out: GI.
Another assay concerns M14. The experiment in a line: Growth inhibition of Homo sapiens (human) M14 cells at 10 uM after 48 hr by SRB assay. The note with it: M14, 48 h, read-out: GI.
The test system of the next assay is Malme-3M. Put plainly: Growth inhibition of Homo sapiens (human) MALME-3M cells at 10 uM after 48 hr by SRB assay. The note with it: read-out: GI.
The test system of the next assay is SF-295. The experiment in a line: Growth inhibition of Homo sapiens (human) SF295 cells at 10 uM after 48 hr by SRB assay. The note with it: SF-295, 48 h, read-out: GI.
The subject of a further assay is KM12. The experiment in a line: Growth inhibition of Homo sapiens (human) KM12 cells at 10 uM after 48 hr by SRB assay. The note with it: KM12, 48 h, read-out: GI.
In the next assay the test system is HCT-15. Put plainly: Growth inhibition of Homo sapiens (human) HCT15 cells at 10 uM after 48 hr by SRB assay. Particulars: HCT-15, 48 h, read-out: GI.
The test system of assay [6] is Candida albicans. Put plainly: Antimicrobial activity against Candida albicans DSM 70014 after 48 hr by two-fold serial broth dilution method relative to clotrimazole.
A further assay relates to HOP-92. The experiment in a line: Growth inhibition of Homo sapiens (human) HOP92 cells at 10 uM after 48 hr by SRB assay. Particulars: HOP-92, 48 h, read-out: GI.

As for `COc1ccc(OC)c(/C=C/c2nnc(S)n2-c2ccc(C)cc2)c1`, the Activity in the assay on Staphylococcus aureus [1] was determined as 40%. In the assay on Candida albicans [2], this compound returned an MFC of 50 µg/mL (≈ 141 µM). Moreover, the MIC against Candida albicans [2] turned out to be 25 µg/mL (≈ 70.7 µM); against Pseudomonas aeruginosa [3] it was 50 µg/mL (≈ 141 µM); in the assay with Staphylococcus aureus [4], 12.5 µg/mL (≈ 35.4 µM); against Escherichia coli, 25 µg/mL (≈ 70.7 µM); with Bacillus subtilis it was 12.5 µg/mL (≈ 35.4 µM). In addition, the MBC in the assay on Pseudomonas aeruginosa [3] was determined as 50 µg/mL (≈ 141 µM); against Staphylococcus aureus [4], 25 µg/mL (≈ 70.7 µM); with Escherichia coli, 50 µg/mL (≈ 141 µM); in the assay with Bacillus subtilis, 25 µg/mL (≈ 70.7 µM).

Regarding `COc1ccc(OC)c(/C=C/c2nnc(SC)n2-c2ccccc2)c1`, the inhibition of growth at 10 µM in the assay with T47D is 41.8%; in the assay on UO-31 it was 44.5%. Also, the Ratio in the assay with Pseudomonas aeruginosa [5] stood at 2. The MFC against Candida albicans [2] was found to be 50 µg/mL (≈ 141 µM). Besides, the MIC in the assay on Candida albicans [2] turned out to be 50 µg/mL (≈ 141 µM); with Pseudomonas aeruginosa [3], 25 µg/mL (≈ 70.7 µM); against Staphylococcus aureus [4], 50 µg/mL (≈ 141 µM); in the assay on Escherichia coli it was 50 µg/mL (≈ 141 µM); against Bacillus subtilis it was 50 µg/mL (≈ 141 µM). Further, the minimal bactericidal concentration (MBC) with Pseudomonas aeruginosa [3], in the assay with Staphylococcus aureus [4], in the assay on Escherichia coli and with Bacillus subtilis was 50 µg/mL (≈ 141 µM) each time.

Turning to `COc1ccc(OC)c(/C=C/c2nnc(SC)n2-c2ccc(Cl)cc2)c1`, the inhibition of growth at 10 µM worked out at 40.2% in the assay with HCT-116; 74.8% with MDA-MB-468; 57.2% with T47D; 53.3% in the assay with MCF7; 61.1% in the assay on PC-3; 60.4% with UO-31. In addition, the inhibition of growth at 10 µM with NCI-H23 stood at 40.3%; in the assay on EKVX, 38.6%; in the assay on A549 it was 35.2%; with SR it was 58.5%; in the assay with K562 it was 69.3%; with HL-60(TB) it was 34.3%. Besides, the inhibition of growth at 10 µM in the assay on RXF 393 stood at 40.3%; in the assay on CAKI-1, 35.5%; in the assay with ACHN it was 32.1%; in the assay with IGROV-1 it was 38.2%; with UACC-62, 50.5%; in the assay with SK-MEL-5, 46.6%. The inhibition of growth at 10 µM was found to be 91.3% with MDA-MB-435; 40% in the assay with M14; 55.2% in the assay on Malme-3M; 53.2% with SF-295; 46.9% in the assay with KM12; 41.1% with HCT-15. In addition, the MFC in the assay on Candida albicans [2] was determined as 100 µg/mL (≈ 258 µM). Also, the minimum inhibitory concentration (MIC) against Candida albicans [2] came out at 50 µg/mL (≈ 129 µM); in the assay with Pseudomonas aeruginosa [3] it was 50 µg/mL (≈ 129 µM); in the assay on Staphylococcus aureus [4], 100 µg/mL (≈ 258 µM); with Escherichia coli, 100 µg/mL (≈ 258 µM); against Bacillus subtilis, 100 µg/mL (≈ 258 µM). The MBC was determined as 50 µg/mL (≈ 129 µM) against Pseudomonas aeruginosa [3], 100 µg/mL (≈ 258 µM) in the assay with Staphylococcus aureus [4], 100 µg/mL (≈ 258 µM) against Escherichia coli and 100 µg/mL (≈ 258 µM) in the assay on Bacillus subtilis.

For the compound `COc1ccc(OC)c(/C=C/c2nnc(SCC(=O)c3cc(O)ccc3O)n2-c2ccc(C)cc2)c1`, the Activity with Candida albicans [6] and with Staphylococcus aureus [1] was 40% throughout. This compound registered an MFC in the assay with Candida albicans [2] of 25 µg/mL (≈ 49.6 µM). The MIC against Candida albicans [2] came to 12.5 µg/mL (≈ 24.8 µM); with Pseudomonas aeruginosa [3] it was 50 µg/mL (≈ 99.3 µM); in the assay with Staphylococcus aureus [4], 12.5 µg/mL (≈ 24.8 µM); in the assay with Escherichia coli it was 25 µg/mL (≈ 49.6 µM); in the assay with Bacillus subtilis, 25 µg/mL (≈ 49.6 µM). The MBC with Pseudomonas aeruginosa [3] was found to be 50 µg/mL (≈ 99.3 µM); in the assay with Staphylococcus aureus [4], 25 µg/mL (≈ 49.6 µM); in the assay on Escherichia coli, 50 µg/mL (≈ 99.3 µM); against Bacillus subtilis, 50 µg/mL (≈ 99.3 µM).

In the case of `COc1ccc(OC)c(/C=C/c2nnc(Nc3ccccc3)o2)c1`, in the assay with Pseudomonas aeruginosa [5], the Ratio stood at 4. The MFC in the assay on Candida albicans [2] turned out to be 50 µg/mL (≈ 155 µM). In addition, the MIC in the assay with Candida albicans [2] was 50 µg/mL (≈ 155 µM); with Pseudomonas aeruginosa [3], 12.5 µg/mL (≈ 38.7 µM); in the assay with Staphylococcus aureus [4], 25 µg/mL (≈ 77.3 µM); with Escherichia coli, 50 µg/mL (≈ 155 µM); against Bacillus subtilis, 12.5 µg/mL (≈ 38.7 µM). The MBC against Pseudomonas aeruginosa [3] is 25 µg/mL (≈ 77.3 µM); in the assay with Staphylococcus aureus [4], 50 µg/mL (≈ 155 µM); in the assay on Escherichia coli, 50 µg/mL (≈ 155 µM); in the assay on Bacillus subtilis, 25 µg/mL (≈ 77.3 µM). In addition, the inhibition of growth at 10 µM with HOP-92 is 37.5%.

Turning to `COc1ccc(OC)c(/C=C/c2nnc(Nc3ccc(Cl)cc3)s2)c1`, the minimum fungicidal concentration (MFC) against Candida albicans [2] worked out at 50 µg/mL (≈ 134 µM). The MIC amounted to 25 µg/mL (≈ 66.9 µM) against Candida albicans [2]; 100 µg/mL (≈ 267 µM) in the assay with Pseudomonas aeruginosa [3]; 25 µg/mL (≈ 66.9 µM) in the assay with Staphylococcus aureus [4]; 100 µg/mL (≈ 267 µM) against Escherichia coli; 100 µg/mL (≈ 267 µM) against Bacillus subtilis. Also, the MBC against Pseudomonas aeruginosa [3], in the assay on Staphylococcus aureus [4], in the assay with Escherichia coli and against Bacillus subtilis was 100 µg/mL (≈ 267 µM) each time. The inhibition of growth at 10 µM in the assay on SR amounted to 32.1%.

A word on the MFC: it is the lowest tested concentration that kills the fungus rather than only halting it. Read a high MFC as weaker fungicidal potency. Usually MIC stands for the lowest concentration that inhibits growth of the organism. Usually MBC stands for the smallest concentration meeting the test's criterion for killing. A high value points to less potent killing.
